# Results: patent EP0295827A2, “Use of 24,25-dihydroxy-cholecalciferol in mending bone fractures” (priority 1987, dated 1988)
# System: rabbits suffering fracture
# Assay: Fibula fracture model: strength test (bending test)
# Format: in vivo, Japanese white house rabbits
# Conditions: 100 µg/kg oral, average value ± standard deviation
# From the text: The right fibulae of mature house rabbits (Japanese white house rabbits having a weight of about 3 kg) were broken at the central portions under anesthetic with a dental hand drill. Each of the house rabbits was kept in a separate cage and was allowed to take an ordinary solid food (CR-1, produced by Nippon Clare Corp.) and city water freely. 24R,25-(OH)₂-D₃ and 24S,25-(OH)₂-D₃ were dispersed in an aqueous 0.5% CMC solution and orally administered to the house rabbits through a rubber catheter. The experimental groups were as follows:
# The respective medicines or aqueous 0.5% CMC solution was administered to these house rabbits for 3 weeks or 6 weeks after the bones had been broken. Thereafter, the house rabbits were killed and the fibulae were taken out for X-ray inspection and a strength test (bending test by DDV-VMF produced by Toyo Baldwin Co., Ltd.).
smiles,measurement,setting,value
"C=C1CC[C@H](O)C/C1=C/C=C1\CCC[C@]2(C)[C@@H]([C@H](C)CC[C@H](O)C(C)(C)O)CC[C@@H]12 [24S,25-(OH)₂-D₃]",Bending strength,3 weeks after,15 N/mm
same,Bending strength,6 weeks after,81 ± 37 N/mm
